Earlier results as cited in patent publication US20230157303A1, “Plant-Based Pesticide” (priority 2022, published 2023).

Experiments:
Conditions in all cases: in vivo
[1] = system: humans and other mammals
[2] = system: honeybees
[3] = system: aquatic wildlife

Row | Compound | toxicity to humans and other mammals [1] | toxicity to honeybees [2] | toxicity to aquatic wildlife [3]
1 | CC1(C)C(C=C(Cl)Cl)C1C(=O)OC(C#N)c1cccc(Oc2ccccc2)c1 (centres unmarked) [Cypermethrin] | acutely toxic | very highly toxic | highly toxic
2 | CCOP(=S)(OCC)Oc1cc(C)nc(C(C)C)n1 [diazinon, Diazinon] |  | toxic | 
3 | CCOC(=O)CC(SP(=S)(OC)OC)C(=O)OCC (centres unmarked) [malathion, Malathion] |  | toxic | 
